Experimental data taken from US5028727A, “Platinum-(IV)-diamine complex” (Nederlandse Organisatie Voor …, priority 1988, dated 1991).
Entries after “also recorded” stand apart in the source; their conditions may differ.

Legend:
A2780/DDP = test: In vitro cytotoxicity, A2780/DDP sub-line resistant to cis-platinum; assay type: cell-based, human; conditions: for IC50: A2780/DDP, 72 hours incubation, crystal violet
Description: (§1) Logarithmically growing cells were harvested by mild trypsinisation and 4,000 cells were added to a microtitre plate with 96 wells (Costar). […] Formalin (10%) in a phosphate-buffered physiological saline solution was added and the cells were fixed for 10 minutes.

B16 melanoma = test: Action against B16 melanoma; assay type: in vivo, BDF1 mice; conditions: day 1-9
Description: BDF1 mice, 10 per group, are inoculated intraperitoneally with 0.5 ml of a 10% (weight/vol) homogeneous tissue suspension of B16 melanoma. Intraperitoneal treatment with the active compound was started one day after the implantation and continued daily for a total of 9 days. The control group treated with a physiological saline solution and groups treated with cis-platinum were included in each experiment. The mice were assessed daily for survival and tests were stopped after 60 days. The mean survival time of the mice treated with the active agent relative to that of the comparison (% T/C) was used as a measure for the anti-tumour action. A compound is regarded as active with a % T/C of 125%.
=Dose is mg/kg per injection administered i.p. on day 1-9

[1] = test system: HCT-116 human colon carcinoma; test: In vitro cytotoxicity, HCT-116 human colon carcinoma; assay type: cell-based; conditions: HCT116; 72 hours incubation; crystal violet
Description: as §1

[2] = test system: A2780 human ovary carcinoma; test: In vitro cytotoxicity, A2780 human ovary carcinoma; assay type: cell-based; conditions: 72 hours incubation, crystal violet
Description: as §1

M5076 sarcoma = test: Action against subcutaneously implanted M5076 sarcoma; assay type: in vivo, BDF1 mice; conditions: day 5, 9, 13 and 17
Description: The complex was also assessed for anti-tumour action against subcutaneously implanted M5076 sarcoma. BDF1 mice, 8 per group, were inoculated subcutaneously with a fragment of a M5076 tumour. The mice were treated intravenously starting 5 days after the implantation and again on days 9, 13 and 17. […] Four doses of the complex were tested. A comparison group treated with physiological saline solution and groups treated with cis-platinum are included in this experiment. The mice were assessed daily for survival and the tests were ended after 75 to 80 days.

B16-F10 murine melanoma = test: In vitro cytotoxicity, B16-F10 murine melanoma; assay type: cell-based; conditions: 72 hours incubation, crystal violet
Description: as §1

L1210 murine leukaemia = test: Activity against L1210 murine leukaemia; assay type: in vivo, CDF1 mice; conditions: for % T/C: once on day 1
Description: The platinum complex was investigated for anti-tumour action against L1210 murine leukaemia. CDF1 mice with a weight of 20 g were inoculated intraperitoneally with 10^6 ascitic cells of L1210 leukaemia. The administration of the active complex was started the day following the intraperitoneal implantation of the tumour. The complex was administered in diverse amounts by intraperitoneal injections. Groups of 6 mice were used for each dose and they were treated with a single dose of the complex on the treatment day. A group of ten control mice treated with a physiological saline solution was included in the experiment. Mice treated with cis-diamine-dichloro-platinum (cis-platinum) were included as positive comparisons. The mice were weighed before the treatment and again on the fifth or sixth day and the average change in weight was taken as a measure of the toxicity. The animals were assessed daily for mortality and the experiments were ended after 30 days. The tumour activity was determined on the basis of % T/C, which is the ratio of mean survival time of the group treated with the active complex relative to the mean survival time of the control group treated with a physiological saline solution times 100. The mice treated with physiological saline solution usually have a mean survival time of 7 days. A compound is regarded as active when this gives a T/C ≥125%.
=Dose is mg/kg administered i.p., once on day 1.

A2780/124 = test: In vitro cytotoxicity, A2780/124 sub-line resistant to cis-platinum; assay type: cell-based, human; conditions: for IC50: A2780/124, 72 hours incubation, crystal violet
Description: as §1

tumours = conditions: Rosenberg et al., Nature 222 (1969); cited from earlier work
[3] = test system: tumour cells resistant to cis-platinum (A2780/124 and A2780/DDP); test: Action against tumour cells resistant to cis-platinum; assay type: cell-based, human
Description: For cis-platinum the corresponding values are 10 and 12.6 respectively.
as §1

[4] = resistance criterion: ratio ≥4.0

Structure (SMILES) | IC50 (A2780/DDP) | % T/C (B16 melanoma; 0.4 mg/kg per injection i.p.) | % T/C (B16 melanoma; 0.8 mg/kg per injection i.p.) | % T/C (B16 melanoma; 1.6 mg/kg per injection i.p.) | % T/C (B16 melanoma; 2.4 mg/kg per injection i.p.) | IC50 [1] | IC50 [2] | % T/C (M5076 sarcoma; 3 mg/kg i.v.) | % T/C (M5076 sarcoma; 4 mg/kg i.v.) | IC50 (B16-F10 murine melanoma) | % T/C (L1210 murine leukaemia; 4 mg/kg i.p.) | % T/C (L1210 murine leukaemia; 6 mg/kg i.p.) | % T/C (L1210 murine leukaemia; 8 mg/kg i.p.) | IC50 (A2780/124) | other results
N.N.[Cl][Pt][Cl] [Cis-platinum, cis-diamine-dichloroplatinum] | 28 µg/mL | 117% | 137% | 171% | 146% | 8.5 µg/mL | 2.3 µg/mL | 134% | 135% | 9.8 µg/mL | 131% | 138% | 131% | 23 µg/mL | ratio IC50 A2780/DDP to IC50 A2780 (A2780/DDP; [4]): 12.6; T-C (mean time for tumours to reach 1 gram, treated relative to untreated) (M5076 sarcoma; 3 mg/kg i.v.): 18.3 days; T-C (mean time for tumours to reach 1 gram, treated relative to untreated) (M5076 sarcoma; 4 mg/kg i.v.): 16.3 days; % T/C (M5076 sarcoma; 5 mg/kg i.v.): 131%; T-C (mean time for tumours to reach 1 gram, treated relative to untreated) (M5076 sarcoma; 5 mg/kg i.v.): 20.5 days; % T/C (M5076 sarcoma; 6 mg/kg i.v.): 121%; T-C (mean time for tumours to reach 1 gram, treated relative to untreated) (M5076 sarcoma; 6 mg/kg i.v.): 20 days; % T/C (L1210 murine leukaemia; 10 mg/kg i.p.): 138%; ratio IC50 A2780/124 to IC50 A2780 (A2780/124; [4]): 10; anti-tumour activity (tumours): very strong anti-tumour activity
NCC1(CN)CCCC1.O=S(=O)([O-])[O-].[Cl][Pt+2][Cl] [TNO-40, Cis-sulphato-trans-dichloro-1,1-bis(aminomethyl)cyclopentane-platinum-(IV)] | 23 µg/mL | 137% | 163% | 139% | 83% | 16 µg/mL | 6.4 µg/mL | 126% | 125% | 7.4 µg/mL | 193% | 186% | 180% | 21 µg/mL | % T/C (B16 melanoma; 0.2 mg/kg per injection i.p.): 127%; toxicity (M5076 sarcoma; 5 mg/kg i.v.): toxic; toxicity (M5076 sarcoma; 6 mg/kg i.v.): toxic; action against cell lines resistant to cis-platinum [3]: exhibits an anti-tumor action; also recorded: surprisingly good action; % T/C (L1210 murine leukaemia; 2,5 mg/kg i.p.): 179%; anti-tumour action against L1210 murine leukaemia (L1210 murine leukaemia; active = T/C ≥125%, all doses investigated): active at all doses investigated
